Laboratory results published in ChEMBL document CHEMBL5584343, “Cerastecin Inhibition of the Lipooligosaccharide Transporter MsbA to Combat Acinetobacter baumannii: From Screening Impurity to In Vivo Efficacy” (J Med Chem, 2024).
Converted amounts (≈) assume the structure as drawn.

What was measured:
[1] = test system: Acinetobacter baumannii; assay: Antibacterial activity against Acinetobacter baumannii CLB21655 incubated for 18 to 20 hrs in presence of 50% mouse serum by microbroth dilution method; type: functional; conditions: time 18-20 hrs
[2] = test system: Acinetobacter baumannii; assay: Antibacterial activity against Acinetobacter baumannii CLB21655 incubated for 18 to 20 hrs in presence of 10% mouse serum by microbroth dilution method; type: functional; conditions: time 18-20 hrs
[3] = test system: Acinetobacter baumannii; assay: Antibacterial activity against Acinetobacter baumannii CLB21655 incubated for 18 to 20 hrs in presence of 50% human serum by microbroth dilution method; type: functional; conditions: time 18-20 hrs
[4] = test system: Acinetobacter baumannii; assay: Antibacterial activity against Acinetobacter baumannii CLB21655 assessed as bacterial growth inhibition incubated for 18 to 20 hrs by microbroth dilution method; type: functional; conditions: time 18-20 hrs
[5] = test system: Acinetobacter baumannii; assay: Antibacterial activity against Acinetobacter baumannii ATCC19606 incubated for 18 to 20 hrs in presence of 10% human serum by microbroth dilution method; type: functional; conditions: time 18-20 hrs
[6] = test system: Acinetobacter baumannii; assay: Selectivity ratio of MIC95 for antibacterial activity against Acinetobacter baumannii ATCC19606 in the presence of 10% human serum to MIC95 for antibacterial activity against Acinetobacter baumannii ATCC19606; type: functional
[7] = Cytotoxicity against GFP fused human MT4 cells cultured under serum free condition for 24 hrs by CellTiter-Glo assay; type: toxicity, cell-based; conditions: GFP fused MT4 cells
[8] = Inhibition of wildtype Acinetobacter baumannii MsbA preincubated for 30 mins followed by ATP addition and measured after 1 hrs by Transcreener ADP2 F1 assay
[9] = test system: Acinetobacter baumannii; assay: Antibacterial activity against Acinetobacter baumannii ATCC19606 assessed as bacterial growth inhibition incubated for 18 to 20 hrs by microbroth dilution method; type: functional; conditions: time 18-20 hrs
[10] = test system: Acinetobacter baumannii; assay: Selectivity ratio of MIC95 for antibacterial activity against Acinetobacter baumannii ATCC19606 in the presence of 1% human serum to MIC95 for antibacterial activity against Acinetobacter baumannii ATCC19606; type: functional
[11] = test system: Acinetobacter baumannii; assay: Antibacterial activity against Acinetobacter baumannii CLB21655 infected in female DBA mouse blood stream infection model assessed as reduction in bacterial burden in spleen at 200 mg/kg, sc pre-infected with bacteria for 0.5 hrs followed by once daily compound administration and measured after 8 hrs (reference value: 5.85 log10CFU/g); type: functional
[12] = test system: Acinetobacter baumannii; assay: Antibacterial activity against Acinetobacter baumannii ATCC19606 incubated for 18 to 20 hrs in presence of 1% of human serum by microbroth dilution method; type: functional; conditions: time 18-20 hrs
[13] = Lipophilicity, logD of compound at pH 7 by HPLC analysis; type: physicochemical; conditions: buffer
[14] = Plasma protein binding in C57BL/6 mouse at 1000 to 100000 ng/ml by equilibrium dialysis based LC-MS/MS analysis; type: ADME, cell-free; conditions: dose 1000-100000 ng/ml, read-out: PPB (converted)
[15] = test system: Acinetobacter baumannii; assay: Antibacterial activity against wild type Acinetobacter baumannii; type: functional
[16] = test system: Acinetobacter baumannii; assay: Antibacterial activity against Acinetobacter baumannii ATCC 19606 assessed as bacterial growth inhibition incubated overnight by spectrophotometric analysis; type: functional
[17] = Cmax in male C57BL/6 mouse at 300 mg/kg, sc administered 3 times a day with 3 hrs interval and measured after 24 hrs by LC-MS/MS analysis; type: ADME, organism-based; conditions: in vivo
[18] = Cmax in male C57BL/6 mouse at 300 mg/kg, sc administered once in a day and measured after 24 hrs by LC-MS/MS analysis; type: ADME, organism-based; conditions: in vivo
[19] = AUC (0 to infinity) in male C57BL/6 mouse at 300 mg/kg, sc administered 3 times a day with 3 hrs interval and measured after 24 hrs by LC-MS/MS analysis; type: ADME, organism-based; conditions: male, C57BL/6, mouse, in vivo
[20] = AUC (0 to infinity) in male C57BL/6 mouse at 300 mg/kg, sc administered once in a day and measured after 24 hrs by LC-MS/MS analysis; type: ADME, organism-based; conditions: male, C57BL/6, mouse, in vivo

MIC95 [5] [µM]	EC50 [8] [µM]	MIC95 [9] [µM]	MIC95 [12] [µM]	SMILES	Selectivity ratio [6]	EC50 at 24 h [7] [µM]	Selectivity ratio [10]	also measured
	0.049	0.057 (≈ 0.0444 µg/mL)	11.5	CCCCc1ccc(S(=O)(=O)Nc2ccc(NC(=O)CCC(=O)Nc3ccc(NS(=O)(=O)c4ccc(CCCC)cc4)c(C(=O)O)c3)cc2C(=O)O)cc1		> 42	202	Activity [11]: 6.04 log10CFU/g; logD [13]: 2.1; fraction unbound [14]: < 0.001
	< 0.01	0.062 (≈ 0.053 µg/mL)	1.56	O=C(CCCOc1ccc(NS(=O)(=O)c2cnn(-c3ccc(Cl)cc3)c2)c(C(=O)O)c1)Nc1ccc(NS(=O)(=O)c2cnn(-c3ccc(Cl)cc3)c2)c(C(=O)O)c1		22.9	25	
6.25	0.082	0.049 (≈ 0.0418 µg/mL)		C[C@@H]1[C@H](Oc2ccc(NS(=O)(=O)c3cnn(-c4ccc(Cl)cc4)c3)c(C(=O)O)c2)CN1Cc1ccc(NS(=O)(=O)c2cnn(-c3ccc(Cl)cc3)c2)c(C(=O)O)c1 (racemic)	128	> 42		

The next lines start with the compound.

SMILES	MIC95 [5] [µM]	EC50 [8] [µM]	MIC95 [9] [µM]	MIC95 [12] [µM]	Selectivity ratio [6]	EC50 at 24 h [7] [µM]	Selectivity ratio [10]	also measured
O=C(O)c1cc(CN2CC(Oc3ccc(NS(=O)(=O)c4cnn(-c5ccc(F)cc5)c4)c(C(=O)O)c3)C2)ccc1NS(=O)(=O)CCCCc1ccc(Cl)cc1								MIC [1]: 70.7 µM; MIC [2]: 3.12 µM; MIC [3]: 29.7 µM; MIC [4]: 0.078 µM (≈ 0.0634 µg/mL)
O=C(O)c1cc(CN2CC(Oc3ccc(NS(=O)(=O)c4ccc(-c5ccc(F)cc5)s4)c(C(=O)O)c3)C2)ccc1NS(=O)(=O)c1cnn(-c2ccc(Cl)cc2)c1	3.12	< 0.01	0.049 (≈ 0.0411 µg/mL)		64	37		
O=C(O)c1cc(CN2CC(COc3ccc(NS(=O)(=O)c4cnn(-c5ccc(Cl)cc5)c4)c(C(=O)O)c3)C2)ccc1NS(=O)(=O)c1cnn(-c2ccc(Cl)cc2)c1	6.25	0.581	0.196 (≈ 0.167 µg/mL)		32	> 42		
O=C(Nc1sc2c(c1C(=O)O)CCCC2)c1ccc(Cl)cc1								MIC [15]: 60 µM (≈ 20.1 µg/mL)
O=C(O)c1cc(CN2CC(Oc3ccc(NS(=O)(=O)c4ccc(-c5ccc(F)cc5)s4)c(C(=O)O)c3)C2)ccc1NS(=O)(=O)CCc1ccc(Cl)cc1	3.12	0.0057	0.024 (≈ 0.0192 µg/mL)		130	38.7		
O=C(O)c1cc(CN2CC(Oc3ccc(NS(=O)(=O)N4CCOC(c5ccc(F)cc5)C4)c(C(=O)O)c3)C2)ccc1NS(=O)(=O)CCCCc1ccc(Cl)cc1 (single isomer, unassigned)								MIC [1]: 50 µM; MIC [2]: 3.12 µM; MIC [3]: 12.5 µM; MIC [4]: 0.049 µM (≈ 0.0407 µg/mL)
CCCCc1ccc(S(=O)(=O)Nc2ccc(NC(=O)N3CCOCC3)cc2C(=O)O)cc1								MIC [16]: ≤ 12.5 µM
O=C(CCCOc1ccc(NS(=O)(=O)c2ccc(-c3ccc(C(F)(F)F)cc3)cc2)c(C(=O)O)c1)Nc1ccc(NS(=O)(=O)c2ccc(-c3ccc(C(F)(F)F)cc3)cc2)c(C(=O)O)c1		< 0.01	0.391 (≈ 0.368 µg/mL)	3.12		11.2	8	Cmax [17]: 543 µM; Cmax [18]: 370 µM; AUC(0-inf) [19]: 3780 µM·h; AUC(0-inf) [20]: 885 µM·h
O=C(CCCOc1ccc(NS(=O)(=O)c2ccc(-c3ccc(Cl)cc3)s2)c(C(=O)O)c1)Nc1ccc(NS(=O)(=O)c2ccc(-c3ccc(Cl)cc3)s2)c(C(=O)O)c1		< 0.01	0.012 (≈ 0.0106 µg/mL)	2.21		3.4	184	
